Source: patent US6924311B2, “Methods for affecting various diseases utilizing LXR compounds” (X-Ceptor Therapeutics, Inc., priority 2001, dated 2005)

Key:
ABCA1 mRNA = experiment: Intestinal mucosa ABCA1 mRNA by quantitative PCR in treated mice; assay type: in vivo; settings: daily oral 7 days
Experimental: The LXR pan-agonist-dependent inhibition of cholesterol absorption is believed to result from the ability of LXRs to induce the expression of ATP binding cassette transporters such as ABCA1 in the intestine. To examine the contributions of LXRα and LXRβ to intestinal gene expression and dietary cholesterol absorption, Compound 1 was administered to wildtype, LXRα−/−, LXRβ−/− and LXRαβ−/− mice for seven days by daily oral gavage in a sesame oil/ethanol vehicle via a 1 cc syringe fitted with a 20G disposable feeding needle. Compound was solvated in ethanol (5% final volume) and brought up to final volume with sesame oil (Sigma, St. Louis, Mo.). Three hours after the final dose (day 7) animals were sacrificed, intestines were harvested, and intestinal enterocytes were isolated by gently scraping the mucosa layer away from the rest of the tissue. Total intestinal mucosa RNA was isolated using RNeasy kits (QIAGEN Inc.) according to the supplier's total RNA isolation procedure. The RNA samples were further treated with deoxyribonuclease I to eliminate contaminating genomic DNA. ABCA1 mRNA levels were than analyzed by real-time based quantitative PCR using Perkin Elmer ABI Prism 7700 and Sequence Detection System software (Perkin Elmer). […] No induction is observed in LXRαβ−/− mice. Thus either LXRα or LXRβ alone is sufficient to induce ABCA1 in the intestine and inhibit the absorption of dietary cholesterol.

peritoneal macrophages = experiment: ApoA1-dependent cholesterol efflux assay (reverse cholesterol transport) in peritoneal macrophages; assay type: cell-based, mice; settings: 1.0 μM
Description: The individual contributions of both receptors to macrophage gene expression were examined by first measuring the amount of mRNA encoding LXRα and LXRβ in thioglycolate-elicited peritoneal macrophages obtained from mixed wildtype mice. Thioglycolate-elicited peritoneal macrophages were isolated from mice 4 days after peritoneal injection of thioglycolate media. Peritoneal macrophages were harvested by lavage of the peritoneum with phosphate buffered saline (PBS), cells were washed, transferred to 60 mm culture plates and incubated at 37° C. in RPMI 1640 media (Life Technologies) containing 10% FBS, 2 mmol/L glutamine, 100 μg/mL streptomycin and 100 IU penicillin (Life Technologies). After 5 hours at 37° C., cells were washed 5 times with PBS to remove non-adherent cells and adherent cells were further incubated in RPMI 1640 media supplemented with 10% FBS for 24 hours. To determine the mRNA levels of LXRα and LXRβ, after 24 hours total RNA was isolated from cultured macrophages using RNeasy kits (QIAGEN Inc.) according to the supplier's total RNA isolation procedure. The RNA samples were further treated with deoxyribonuclease I to eliminate contaminating genomic DNA. LXRα and LXRβ mRNA levels were than analyzed by real-time based quantitative PCR using Perkin Elmer ABI Prism 7700 and Sequence Detection System software (Perkin Elmer). […] Since ABCA1 is involved in mediating reverse cholesterol transport, peritoneal macrophages isolated as described above and cultured for 24 hours in the absence or presence of LXR agonist (1.0 μM Compound 1) were examined in a cholesterol efflux assay which measures reverse cholesterol transport in vitro. Mouse peritoneal macrophages isolated as described above from wildtype (mixed and C57BL/6), LXRα−/− (C57BL/6), LXRβ−/−, and LXRαβ−/− mice were cultured in 96 well plates (5×10^4 cells/well) at 37° C. After 24 hours, cells were labeled for 48 hours with 0.2 μCi/ml ^14C-cholesterol in RPMI 1640 medium with 1% FBS. Following the labeling period, ^14C-cholesterol was removed and the cells were cultured for 24 hours in serum free RPMI 1640 media in the presence or absence of 10 μg/ml apolipoprotein A (ApoA1). In this assay ApoA1 acts as a cholesterol acceptor and mimics the cholesterol-accepting function performed by HDL particles in vivo. Following this incubation, the media is removed, cells are washed and than lysed with 0.2 M sodium hydroxide. To determine ApoA1-dependent cholesterol efflux, the amount of ^14C-cholesterol present in the media is divided by the total counts (media+cell lysate) and the value determined in the absence of ApoA is subtracted from the value determined in the presence of ApoA. […] No effect is observed upon elimination of LXRα alone.

[1] = Plasma glucose levels in db/db mice; assay type: in vivo; settings: 50 mg/kg daily oral gavage, 14 days
Description: Cardiovascular disease is one of the major complications of type II diabetes. […] A mouse model of type II diabetes is the diabetic (db/db) mouse. [See Coleman, D. L. (1978), Obese and Diabetes: Two Mutant Genes Causing Diabetes-Obesity Syndrom In Mice. Diabetologia 14, 141-148; and Hong Chen, Olga […], Louis […], Elizabeth A. Woolf, Xun Weng, Stephen J. Ellis, […], Janice Culpepper, Karen J. More, Roger E. Breitbart, Geoffrey M. Duyk, Robert I. and Jay P. Morgenstern (1996), Evidence That The Diabetes Gene Encodes The Leptin Receptor: Identification Of A Mutation In The Leptin Receptor In db/db Mice, Cell 84, 491-495.] […] To examine the ability of LXR agonists to modulate blood glucose levels, db/db mice were treated for 14 days with 50 mg compound/kg body weight of the LXR agonist Compound 1. As a positive control animals were also treated with 30 mg compound/kg body weight of the retinoid X receptor (RXR) agonist. […] Both compounds were administered by daily oral gavage in a sesame oil/ethanol vehicle via a 1-cc syringe fitted with a 20G disposable feeding needle. […] Plasma glucose levels were determined using a colorimetric enzymatic assay adapted to a 96 well plate format (Sigma, St. Louis, Mo.). […] The absorbance of the samples and standards were read using a Multiskan plate reader.

ABCA1 mRNA fold induction in the intestine (ABCA1 mRNA; LXRα−/− mice, depending on the strain): 7-14 fold
ABCA1 mRNA fold induction in the intestine (ABCA1 mRNA; LXRβ−/− mice): 9 fold
ABCA1 mRNA fold induction in the intestine (ABCA1 mRNA; wildtype mice, depending on the strain): 14-29 fold
SMILES: O=S(=O)(c1ccccc1)N(CC(F)(F)F)c1ccc(C(O)(C(F)(F)F)C(F)(F)F)cc1 [Compound 1, N-(2,2,2-trifluoroethyl)-N-[4-(2,2,2-trifluoro-1-hydroxy-1-trifluoromethylethyl)-phenyl]-benzene sulfonamide]
ABCA1 mRNA induction in the intestine (ABCA1 mRNA; LXRαβ−/− mice): No induction
reverse cholesterol transport (cholesterol efflux) (peritoneal macrophages; LXRαβ−/− macrophages): further reduced
reverse cholesterol transport (cholesterol efflux) (peritoneal macrophages; LXRα−/− (C57BL/6) macrophages): No effect
reverse cholesterol transport (cholesterol efflux) (peritoneal macrophages; LXRβ−/− macrophages): significantly reduced
reverse cholesterol transport (cholesterol efflux) (peritoneal macrophages; wildtype (mixed and C57BL/6) macrophages): stimulates reverse cholesterol transport
effect on plasma glucose (hyperglycemia) [1]: significantly reduces hyperglycemia in db/db mice
